The subject of test [1] is HCT116 colorectal cancer cells. Description: Cisplatin Sensitization Assay (96 h cell viability MTS). The format is cell-based. To be noted: concentration of compound required to reduce the IC50 of Cisplatin alone by at least 3-fold; HCT116, 96 h MTS. In a few lines: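 HCT116 cells received compound and cisplatin together as a full matrix of 2-fold dilutions, each from a 10 μM top final concentration. After 96 h at 37 °C and 5% CO2, viability was read by MTS (1 h, A490). The value is the compound concentration that lowers the cisplatin IC50 at least 3-fold.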

In a further test the target is T1, ATR kinase (Homo sapiens, UniProt Q13535).
T1 construct: Assays were carried out at 25° C. in the presence of 5 nM full-length ATR
T1 sequence (Q13535 whole entry): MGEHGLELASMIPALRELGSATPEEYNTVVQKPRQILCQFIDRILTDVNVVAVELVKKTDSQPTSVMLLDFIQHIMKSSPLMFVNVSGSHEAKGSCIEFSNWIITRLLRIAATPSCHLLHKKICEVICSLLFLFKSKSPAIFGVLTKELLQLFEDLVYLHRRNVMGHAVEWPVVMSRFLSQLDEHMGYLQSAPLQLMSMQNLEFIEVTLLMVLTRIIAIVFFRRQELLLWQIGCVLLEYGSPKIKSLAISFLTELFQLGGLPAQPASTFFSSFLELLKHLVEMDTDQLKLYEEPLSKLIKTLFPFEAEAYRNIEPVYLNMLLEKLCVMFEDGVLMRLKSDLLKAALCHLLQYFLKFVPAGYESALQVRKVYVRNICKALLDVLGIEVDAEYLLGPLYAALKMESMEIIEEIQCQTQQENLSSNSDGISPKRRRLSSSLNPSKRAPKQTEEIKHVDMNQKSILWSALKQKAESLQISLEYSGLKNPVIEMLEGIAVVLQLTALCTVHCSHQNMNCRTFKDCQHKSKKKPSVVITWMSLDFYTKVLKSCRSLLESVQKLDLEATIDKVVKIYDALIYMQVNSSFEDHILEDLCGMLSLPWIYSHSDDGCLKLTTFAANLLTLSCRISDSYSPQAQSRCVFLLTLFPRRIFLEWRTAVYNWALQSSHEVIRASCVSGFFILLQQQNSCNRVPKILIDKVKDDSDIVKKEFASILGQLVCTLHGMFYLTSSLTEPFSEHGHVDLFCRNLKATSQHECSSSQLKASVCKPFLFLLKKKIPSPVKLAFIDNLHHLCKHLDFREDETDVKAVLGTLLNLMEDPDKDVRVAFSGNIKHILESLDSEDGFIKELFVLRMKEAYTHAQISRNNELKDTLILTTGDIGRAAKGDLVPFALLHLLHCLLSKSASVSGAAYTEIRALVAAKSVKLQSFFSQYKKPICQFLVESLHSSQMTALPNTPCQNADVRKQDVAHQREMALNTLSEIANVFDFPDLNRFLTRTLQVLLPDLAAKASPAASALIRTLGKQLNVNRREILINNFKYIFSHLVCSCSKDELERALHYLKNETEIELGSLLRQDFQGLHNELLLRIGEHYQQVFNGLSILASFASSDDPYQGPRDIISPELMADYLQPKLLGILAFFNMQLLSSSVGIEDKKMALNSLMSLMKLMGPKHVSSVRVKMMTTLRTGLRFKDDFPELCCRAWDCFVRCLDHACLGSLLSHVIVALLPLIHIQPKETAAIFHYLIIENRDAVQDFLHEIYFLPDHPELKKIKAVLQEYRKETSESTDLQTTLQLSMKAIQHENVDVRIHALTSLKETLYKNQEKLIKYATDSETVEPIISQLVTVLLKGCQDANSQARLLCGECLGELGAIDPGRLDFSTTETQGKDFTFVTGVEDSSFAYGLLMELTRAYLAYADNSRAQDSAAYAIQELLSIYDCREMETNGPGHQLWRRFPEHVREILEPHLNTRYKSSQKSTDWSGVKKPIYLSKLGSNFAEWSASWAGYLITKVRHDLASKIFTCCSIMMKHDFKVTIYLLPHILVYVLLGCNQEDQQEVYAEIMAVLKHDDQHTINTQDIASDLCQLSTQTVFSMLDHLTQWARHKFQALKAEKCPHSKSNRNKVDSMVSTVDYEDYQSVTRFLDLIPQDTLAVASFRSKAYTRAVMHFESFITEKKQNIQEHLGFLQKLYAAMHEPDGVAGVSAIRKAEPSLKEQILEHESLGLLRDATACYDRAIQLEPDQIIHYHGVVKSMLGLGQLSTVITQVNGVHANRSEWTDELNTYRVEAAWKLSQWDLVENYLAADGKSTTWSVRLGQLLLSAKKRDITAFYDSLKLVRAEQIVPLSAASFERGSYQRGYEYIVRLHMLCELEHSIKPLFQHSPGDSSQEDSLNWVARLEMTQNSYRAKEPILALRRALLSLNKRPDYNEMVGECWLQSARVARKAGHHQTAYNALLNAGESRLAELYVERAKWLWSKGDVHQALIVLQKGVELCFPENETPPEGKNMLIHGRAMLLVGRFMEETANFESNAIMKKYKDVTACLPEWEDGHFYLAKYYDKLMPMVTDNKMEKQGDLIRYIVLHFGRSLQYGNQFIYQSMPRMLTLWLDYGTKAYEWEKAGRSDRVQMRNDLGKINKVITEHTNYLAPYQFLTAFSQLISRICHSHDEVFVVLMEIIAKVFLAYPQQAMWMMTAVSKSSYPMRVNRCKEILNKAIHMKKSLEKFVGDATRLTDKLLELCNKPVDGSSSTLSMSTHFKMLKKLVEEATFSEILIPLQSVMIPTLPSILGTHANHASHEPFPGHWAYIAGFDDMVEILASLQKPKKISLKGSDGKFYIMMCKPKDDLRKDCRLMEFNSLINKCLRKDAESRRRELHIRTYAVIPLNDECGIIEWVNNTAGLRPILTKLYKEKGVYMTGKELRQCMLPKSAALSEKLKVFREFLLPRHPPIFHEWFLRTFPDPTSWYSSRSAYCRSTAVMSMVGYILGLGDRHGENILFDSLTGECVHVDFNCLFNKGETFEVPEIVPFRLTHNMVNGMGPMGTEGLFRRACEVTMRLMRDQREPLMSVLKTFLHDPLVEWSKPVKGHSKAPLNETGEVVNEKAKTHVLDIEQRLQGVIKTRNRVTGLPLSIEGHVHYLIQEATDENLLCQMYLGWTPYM
Description: ATR Inhibition Assay (radioactive-phosphate incorporation). The note with it: Ki(app); 5 nM full-length ATR, 10 μM ATP, 800 μM target peptide, 25° C. The format is biochemical. Put shortly:
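Full-length ATR (5 nM) in 50 mM Tris/HCl pH 7.5, 10 mM MgCl2, 1 mM DTT, with 800 μM peptide substrate and 10 μM [γ-33P]ATP at 25 °C. Compounds (from 15 μM final, 3-fold dilutions, 7% DMSO) were preincubated 10 min; the reaction was stopped at 24 h. 33P incorporation was captured on phosphocellulose; Ki(app) was from non-linear regression of initial rates.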

For `COc1ccncc1NC(=O)c1c(N)nn2ccc(OCCN(C)C)nc12` [I-O-62, 2-amino-5-(2-(dimethylamino)ethoxy)-N-(4-methoxypyridin-3-yl)pyrazolo[1,5-a]pyrimidine-3-carboxamide], the “Synergy with Cisplatin” value in test [1] is “++ (Compounds with a Cisplatin sensitization value>0.02 μM but <0.2 μM are marked with “++.”)”. Besides, the Ki at ATR kinase is 10 to 1000 nM.
On the same counts, the results for `Nc1nn2ccc(C(F)(F)F)nc2c1C(=O)Nc1cnccc1O[C@H]1CCOC1` [I-O-10, (S)-2-amino-N-(4-((tetrahydrofuran-3-yl)oxy)pyridin-3-yl)-5-(trifluoromethyl)pyrazolo[1,5-a]pyrimidine-3-carboxamide] are “+++ (Compounds with a Cisplatin sensitization value of <0.02 μM are marked with “+++.”)” and 10 to 1000 nM.
Take `COc1ccncc1NC(=O)c1c(N)nn2ccc(OC3CCN(C)C3)nc12` (centres unmarked) [I-O-57, 2-amino-N-(4-methoxypyridin-3-yl)-5-((1-methylpyrrolidin-3-yl)oxy)pyrazolo[1,5-a]pyrimidine-3-carboxamide]: the “Synergy with Cisplatin” value in test [1] is recorded as “++ (Compounds with a Cisplatin sensitization value>0.02 μM but <0.2 μM are marked with “++.”)”. The Ki at ATR kinase was in the range of 10 to 1000 nM.
For `COc1ccncc1NC(=O)c1c(N)nn2ccc(N3CCN4CCC[C@@H]4C3)nc12` [I-O-75, (R)-2-amino-5-(hexahydropyrrolo[1,2-a]pyrazin-2(1H)-yl)-N-(4-methoxypyridin-3-yl)pyrazolo[1,5-a]pyrimidine-3-carboxamide] the same measures were “++ (Compounds with a Cisplatin sensitization value>0.02 μM but <0.2 μM are marked with “++.”)” and 10 to 1000 nM.
On the same counts, the results for `Nc1nn2ccc(C(F)(F)F)nc2c1C(=O)Nc1cnccc1OC1CCCOC1` (centres unmarked) [I-O-12, 2-amino-N-(4-((tetrahydro-2H-pyran-3-yl)oxy)pyridin-3-yl)-5-(trifluoromethyl)pyrazolo[1,5-a]pyrimidine-3-carboxamide] are “+++ (Compounds with a Cisplatin sensitization value of <0.02 μM are marked with “+++.”)” and 10 to 1000 nM.
On the same counts, the results for `Nc1nn2ccc(C(F)(F)F)nc2c1C(=O)Nc1cnccc1OC1CCC1` [I-O-5, 2-amino-N-(4-cyclobutoxypyridin-3-yl)-5-(trifluoromethyl)pyrazolo[1,5-a]pyrimidine-3-carboxamide] are “+++ (Compounds with a Cisplatin sensitization value of <0.02 μM are marked with “+++.”)” and 10 to 1000 nM.
As for `Nc1nn2ccc(C(F)(F)F)nc2c1C(=O)Nc1cnccc1-c1ccccc1` [I-C-2, 2-amino-N-(4-phenylpyridin-3-yl)-5-(trifluoromethyl)pyrazolo[1,5-a]pyrimidine-3-carboxamide], the “Synergy with Cisplatin” value in test [1] was “+ (Compounds with a Cisplatin sensitization value >0.2 μM but <5 μM are marked with “+.”)”. Besides, the Ki on ATR kinase was 10 to 1000 nM.
On the same counts, the results for `CN(C)Cc1ccc(Oc2ccncc2NC(=O)c2c(N)nn3ccc(C(F)(F)F)nc23)cn1` [I-O-45, 2-amino-N-(4-((6-((dimethylamino)methyl)pyridin-3-yl)oxy)pyridin-3-yl)-5-(trifluoromethyl)pyrazolo[1,5-a]pyrimidine-3-carboxamide] are “+++ (Compounds with a Cisplatin sensitization value of <0.02 μM are marked with “+++.”)” and 10 to 1000 nM.
In the case of `Nc1nn2ccc(C(F)(F)F)nc2c1C(=O)Nc1cnccc1OC1CC2(CCN2)C1` (centres unmarked) [I-O-24, N-(4-((4r,6s)-1-azaspiro[3.3]heptan-6-yloxy)pyridin-3-yl)-2-amino-5-(trifluoromethyl)pyrazolo[1,5-a]pyrimidine-3-carboxamide], in test [1], the “Synergy with Cisplatin” value was “+++ (Compounds with a Cisplatin sensitization value of <0.02 μM are marked with “+++.”)”. Besides, the Ki at ATR kinase fell in the range of 10 to 1000 nM.
On the same counts, the results for `COc1ccncc1NC(=O)c1c(N)nn2ccc(N(C)CC3CCCN3C)nc12` (centres unmarked) [I-O-73, 2-amino-N-(4-methoxypyridin-3-yl)-5-(methyl((1-methylpyrrolidin-2-yl)methyl)amino)pyrazolo[1,5-a]pyrimidine-3-carboxamide] are “+ (Compounds with a Cisplatin sensitization value >0.2 μM but <5 μM are marked with “+.”)” and 10 to 1000 nM.
On the same counts, the results for `Nc1nn2ccc(C(F)(F)F)nc2c1C(=O)Nc1cnccc1OC1CCOCC1` [I-O-11, 2-amino-N-(4-((tetrahydro-2H-pyran-4-yl)oxy)pyridin-3-yl)-5-(trifluoromethyl)pyrazolo[1,5-a]pyrimidine-3-carboxamide] are “+++ (Compounds with a Cisplatin sensitization value of <0.02 μM are marked with “+++.”)” and 10 to 1000 nM.
Regarding `Nc1nn2ccc(C(F)(F)F)nc2c1C(=O)Nc1cnccc1OCCN1CCOCC1` [I-O-20, 2-amino-N-(4-(2-morpholinoethoxy)pyridin-3-yl)-5-(trifluoromethyl)pyrazolo[1,5-a]pyrimidine-3-carboxamide], the “Synergy with Cisplatin” value in test [1] is reported as “++ (Compounds with a Cisplatin sensitization value>0.02 μM but <0.2 μM are marked with “++.”)”. Besides, on ATR kinase, the Ki was in the range of 10 to 1000 nM.
For `CN1CCC[C@H]1COc1ccncc1NC(=O)c1c(N)nn2ccc(C(F)(F)F)nc12` [I-O-33, (S)-2-amino-N-(4-((1-methylpyrrolidin-2-yl)methoxy)pyridin-3-yl)-5-(trifluoromethyl)pyrazolo[1,5-a]pyrimidine-3-carboxamide] the same measures were “++ (Compounds with a Cisplatin sensitization value>0.02 μM but <0.2 μM are marked with “++.”)” and 10 to 1000 nM.
For `Nc1nn2ccc(C(F)(F)F)nc2c1C(=O)Nc1cnccc1O[C@@H]1CCOC1` [I-O-9, (R)-2-amino-N-(4-((tetrahydrofuran-3-yl)oxy)pyridin-3-yl)-5-(trifluoromethyl)pyrazolo[1,5-a]pyrimidine-3-carboxamide] the same measures were “+++ (Compounds with a Cisplatin sensitization value of <0.02 μM are marked with “+++.”)” and 10 to 1000 nM.
On the same counts, the results for `COc1ccncc1NC(=O)c1c(N)nn2ccc(C(C)(C)C#N)nc12` [I-O-52, 2-amino-5-(2-cyanopropan-2-yl)-N-(4-methoxypyridin-3-yl)pyrazolo[1,5-a]pyrimidine-3-carboxamide] are “+++ (Compounds with a Cisplatin sensitization value of <0.02 μM are marked with “+++.”)” and 10 to 1000 nM.
For `CN1CCC(Oc2c(Cl)cncc2NC(=O)c2c(N)nn3ccc(C(F)(F)F)nc23)CC1` [I-O-49, 2-amino-N-(5-chloro-4-((1-methylpiperidin-4-yl)oxy)pyridin-3-yl)-5-(trifluoromethyl)pyrazolo[1,5-a]pyrimidine-3-carboxamide], the “Synergy with Cisplatin” value in test [1] is reported as “+ (Compounds with a Cisplatin sensitization value >0.2 μM but <5 μM are marked with “+.”)”. Moreover, on ATR kinase, the Ki lay within 1000 to 5000 nM.
For `Nc1nn2ccc(C(F)(F)F)nc2c1C(=O)Nc1cnccc1OC1CC2(CCN2)C1` (centres unmarked) [I-O-22, N-(4-((4s,6r)-1-azaspiro[3.3]heptan-6-yloxy)pyridin-3-yl)-2-amino-5-(trifluoromethyl)pyrazolo[1,5-a]pyrimidine-3-carboxamide] the same measures were “++ (Compounds with a Cisplatin sensitization value>0.02 μM but <0.2 μM are marked with “++.”)” and 10 to 1000 nM.
For `COc1ccncc1NC(=O)c1c(N)nn2ccc(N3CCNCC3)nc12` [I-O-76, 2-amino-N-(4-methoxypyridin-3-yl)-5-(piperazin-1-yl)pyrazolo[1,5-a]pyrimidine-3-carboxamide] the same measures were “++ (Compounds with a Cisplatin sensitization value>0.02 μM but <0.2 μM are marked with “++.”)” and 10 to 1000 nM.
For `CN(C)C1CCC(Oc2ccncc2NC(=O)c2c(N)nn3ccc(C(F)(F)F)nc23)CC1` (centres unmarked) [I-O-44, 2-amino-N-(4-(((1s,4s)-4-(dimethylamino)cyclohexyl)oxy)pyridin-3-yl)-5-(trifluoromethyl)pyrazolo[1,5-a]pyrimidine-3-carboxamide] the same measures were “+ (Compounds with a Cisplatin sensitization value >0.2 μM but <5 μM are marked with “+.”)” and 1000 to 5000 nM.
Take `CN(C)C1CCC(Oc2ccncc2NC(=O)c2c(N)nn3ccc(C(F)(F)F)nc23)CC1` (centres unmarked) [I-O-35, 2-amino-N-(4-((4-(dimethylamino)cyclohexyl)oxy)pyridin-3-yl)-5-(trifluoromethyl)pyrazolo[1,5-a]pyrimidine-3-carboxamide]: the “Synergy with Cisplatin” value in test [1] was “+++ (Compounds with a Cisplatin sensitization value of <0.02 μM are marked with “+++.”)”. Further, the Ki at ATR kinase is 10 to 1000 nM.
For `Nc1nn2ccc(C(F)(F)F)nc2c1C(=O)Nc1cnccc1OCCN1CC2(COC2)C1` [I-O-38, N-(4-(2-(2-oxa-6-azaspiro[3.3]heptan-6-yl)ethoxy)pyridin-3-yl)-2-amino-5-(trifluoromethyl)pyrazolo[1,5-a]pyrimidine-3-carboxamide] the same measures were “+ (Compounds with a Cisplatin sensitization value >0.2 μM but <5 μM are marked with “+.”)” and 10 to 1000 nM.
For `CN1CCC(Oc2ccncc2NC(=O)c2c(N)nn3ccc(C(F)(F)F)nc23)CC1` [I-O-31, 2-amino-N-(4-((1-methylpiperidin-4-yl)oxy)pyridin-3-yl)-5-(trifluoromethyl)pyrazolo[1,5-a]pyrimidine-3-carboxamide] the same measures were “++ (Compounds with a Cisplatin sensitization value>0.02 μM but <0.2 μM are marked with “++.”)” and 10 to 1000 nM.

For the origin of these results see patent publication US8969360B2, “Compounds useful as inhibitors of ATR kinase” (Vertex Pharmaceuticals Incorporated, priority 2013, dated 2015).
